Data on two compounds can be found in paper PMC12549899 (Nature Communications, 2025).

Positions count from the first letter of the chain named. Several values for one entry are separate records, joined by “and”; a condition that tells them apart may be missing. Equal values may be shown once.

A word on the Hill coefficient: it is the slope factor of the fitted curve. What is called inhibition is how much of the control response was suppressed. In general, IC50 refers to the point on the concentration scale where inhibition reaches its midpoint. Higher therefore signals a need for much substance.

In one experiment the target is T1, DrOTOP1 M133W (Danio rerio, UniProt Q7ZWK8, M133W).
T1 construct: A previously generated codon-optimized full-length DrOTOP1[8]; (UniProt: Q7ZWK8) construct; expressed in transfected cells; host or cells: HEK-293 (CRL-1573, ATCC)
T1 sequence (Q7ZWK8 1-586 M133W): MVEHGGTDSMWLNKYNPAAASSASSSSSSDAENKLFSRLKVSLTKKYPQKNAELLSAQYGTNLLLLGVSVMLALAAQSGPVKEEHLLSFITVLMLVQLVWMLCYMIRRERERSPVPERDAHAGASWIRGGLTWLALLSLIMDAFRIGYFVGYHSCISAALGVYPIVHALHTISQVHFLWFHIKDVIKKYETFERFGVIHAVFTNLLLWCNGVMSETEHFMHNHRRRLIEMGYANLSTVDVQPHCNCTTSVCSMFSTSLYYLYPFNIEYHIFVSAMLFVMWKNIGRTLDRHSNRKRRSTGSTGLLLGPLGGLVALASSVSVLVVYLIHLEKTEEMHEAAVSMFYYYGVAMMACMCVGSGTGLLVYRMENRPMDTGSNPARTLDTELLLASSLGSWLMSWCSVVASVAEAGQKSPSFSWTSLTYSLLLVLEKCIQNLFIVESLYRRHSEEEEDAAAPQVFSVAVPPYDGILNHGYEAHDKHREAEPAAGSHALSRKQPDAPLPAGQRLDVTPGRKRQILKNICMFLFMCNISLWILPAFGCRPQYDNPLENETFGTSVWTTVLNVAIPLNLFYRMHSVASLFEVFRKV
Description: Whole-cell patch-clamp, inhibition of acid-evoked currents, DrOTOP1 M133W. In kind it is cell-based, zebrafish (Danio rerio). The source says:
(§1) To functionally test the significance of the two binding sites identified by cryo-EM, we generated point mutations of DrOTOP1 using the binding poses and conformational changes observed in DrOTOP1_C2.2 to guide our mutations. As per the binding pose that best fits our cryo-EM density, C2.2 forms the following interactions in the outer site: hydrophobic packing against many non-polar residues W126, G130, M133, L134, F271, F570, and M573, and π-stacking with W532 (Fig. 5A). In addition, C2.2 could potentially form H-bonds with E267, if the sidechain is protonated or a water bridge is present, and with H574 if it moves closer (Fig. 5A). Likewise, C2.36 presents a heterocyclic nitrogen that can potentially form a H-bond with E267, similarly, provided a protonation or water bridge is present (Fig. 5B). In addition, C2.36 forms a T-shaped π-stacking interaction with H574, whose sidechain has rotated 90 degrees (compared to DrOTOP1_apo), presumably to accommodate the interaction (Fig. 5B). Considering other inhibitors discovered from the second round of screening, many contain functional groups like the carbonyl groups of Group 1 molecules and the heterocyclic nitrogen atoms of Group 2 molecules (Supplementary Fig. 3E), that can potentially form similar H-bonds with E267 as C2.2 and C2.36, assuming the binding modes are similar. In the central site, C2.2 binds with the following interactions: hydrophobic packing with residues V201, F271, A274, V278, and A388, π-stacking with F277, and H-bonding with E384 (Fig. 5C).
Each non-aromatic residue was mutated to tryptophan, which was expected to cause steric occlusion. […]
Whole-cell patch-clamp recording was performed as previously described[6],[22],[25]. Recordings were made with an Axopatch 200B amplifier, digitized with a Digidata 1322a 16-bit data acquisition system, acquired with pClamp 8.2 and analyzed with Clampfit 10 (Molecular Devices). […]
For orientation: The patch-clamp technique gives a direct electrical read-out from membranes.

For a further experiment, the target named is T2, DrOTOP1 M573W (Danio rerio, UniProt Q7ZWK8, M573W).
T2 construct: A previously generated codon-optimized full-length DrOTOP1[8]; (UniProt: Q7ZWK8) construct; expressed in transfected cells; host or cells: HEK-293 (CRL-1573, ATCC)
T2 sequence (Q7ZWK8 1-586 M573W): T1 sequence (Q7ZWK8 1-586 M133W) with W133M, M573W
Nature of the experiment: Whole-cell patch-clamp, inhibition of acid-evoked currents, DrOTOP1 M573W (outer site). It counts as cell-based, zebrafish (Danio rerio).
Source text: as §1
Each non-aromatic residue was mutated to tryptophan, which was expected to cause steric occlusion. […] This seemed appropriate given the small number of H-bonds in these pockets, the ambiguity of how the inhibitors fit the density, and the prevalence of hydrophobic packing interactions (Fig. 5A–C).
HEK-293 cells (CRL-1573, ATCC) were cultured in DMEM (Thermofisher 11995073) containing 10% fetal bovine serum (Life Technology 16000044) and Penicillin-Streptomycin (100 I.U./mL) and (100 µg/mL), respectively. Cells were transfected with WT DrOTOP1 or mutant DrOTOP1 channels in 35 mm petri dishes, with ~ 500 ng DNA and 2 μL TransIT-LT1 transfection reagent (Mirus Bio Corporation, Cat # MIR2300) following the manufacturer’s protocol. All constructs were subcloned into a pcDNA3.1 vector that adds an N-terminal fusion tag consisting of an octahistidine tag followed by eGFP, a Gly-Thr-Gly-Thr linker and a 3C protease cleavage site ([…]) followed by WT DrOTOP1, WT mOTOP1, WT hOTOP1, or mutated DrOTOP1. Point mutations were generated via In-Fusion Cloning (Takara) using single-stranded DNA primers generated through IDT and sequence confirmed by Sanger sequencing (GeneWiz).
Whole-cell patch-clamp recording was performed as previously described[6],[22],[25]. Recordings were made with an Axopatch 200B amplifier, digitized with a Digidata 1322a 16-bit data acquisition system, acquired with pClamp 8.2 and analyzed with Clampfit 10 (Molecular Devices). Recordings were sampled at 5 kHz and filtered at 1 kHz. Patch Pipettes with resistance of […] were fabricated from borosilicate glass, and only recordings with a giga-Ohm seal were used in analysis. Membrane potential was held at −80 mV for the duration of recordings. At the beginning of recordings and between, cells were washed with Tyrode’s solution (see below). Once a giga-Ohm seal was reached, cells were lifted and placed in front of microcapillary tubes controlled by a Fast-Step perfusion system (Warner Instruments) so that extracellular solutions could be rapidly exchanged during each experiment.
Standard Tyrode’s solution consisted of 145 mM NaCl, 5 mM KCl, MgCl2, 2 mM CaCl2, 20 mM D-Glucose, and 10 mM HEPES (for pH 7.4). All other extracellular patch-clamp solutions contained 160 mM NMDG-Cl, 2 mM CaCl2, and the following buffers: 10 mM HEPES (for pH 7.4), 10 mM MES (for pH 6.5-5.5), 10 mM CHES for pH 10, and 10 mM HomoPIPES for (pH 5.0). pH adjusted with HCl. […]

Take `C=C(C)COc1ccccc1NC(=O)c1nc[nH]c1C` [C2.2]: the Inhibition of currents on DrOTOP1 M133W (10 µM, single cells or mean, mean) was 71.39%; on DrOTOP1 M133W (10 µM, single cells or mean, single cells), 74.2591% and 52.599% and 79.1509% and 79.3522% and 71.5803%. This compound also had a Hill coefficient at DrOTOP1 M573W of 1.238. Besides, the inhibition at 3 µM against DrOTOP1 M573W (3 µM, single cells) is 4.02%. The same compound registered an inhibition at 30 µM on DrOTOP1 M573W (30 µM, single cells) of 46.6%. Further, the inhibition at 100 µM at DrOTOP1 M573W (100 µM, single cells) is 84.3%. The compound also came in with an inhibition at 300 µM against DrOTOP1 M573W (300 µM, single cells) of 91.4%. Also, at DrOTOP1 M573W (pH 5.5), the IC50 amounted to 30.4 µM.
On to `O=C(/C(=N\O)c1ccccc1)c1ccccc1` [C11, benzil monoxime], for which the Inhibition of currents on DrOTOP1 M133W (100 µM, single cells) is 51.1084% and 50.3496% and 47.6418% and 59.4138% and 72.1088%. For the same compound, at DrOTOP1 M573W (100 µM, single cells), the Inhibition of currents was 53.3175% and 66.3617% and 67.3077% and 51.54%; the inhibition at 100 µM turned out to be 51.6%.
